# Legend:
# non-transduced cells = assay: Viability of non-transduced cells with AP20187; type: cell-based, human
# Description: (§1) Suicide gene functionality was assessed by adding a small molecule synthetic homodimerizer, AP20187 (Ariad Pharmaceuticals; Cambridge, Mass.), at 10 nM final concentration the day following CD19 immunomagnetic selection. Cells were stained with annexin V and 7-amino-actinomycin (7-AAD)(BD Pharmingen) at 24 hours and analyzed by flow cytometry. Cells negative for both annexin V and 7-AAD were considered viable, cells that were annexin V positive were apoptotic, and cells that were both annexin V and 7-AAD positive were necrotic. The percentage killing induced by dimerization was corrected for baseline viability as follows: Percentage killing=100%−(% Viability in AP20187-treated cells÷% Viability in non-treated cells).
# The day following immunomagnetic selection, 10 nM of the chemical inducer of dimerization, AP20187, was added to induce apoptosis, which appeared within 24 hours. […] Killing efficiency after correction for baseline viability was about 92.9%±3.8%. Large-scale CD19 selection produced cells that were killed with similar efficiency as small-scale selection: mean viability with and without AP20187, and percentage killing, in large and small scale were about 3.9%, about 84.0%, about 95.4% (n=3) and about 6.6%, about 79.3%, about 91.4% (n=5) respectively. […]
# [1] = system: T cells transduced with these inducible death molecules; conditions: inducible Fas or FADD DED; cited from earlier work
# [2] = system: F-Casp9M.I.GFPhigh-transduced T cells; assay: Annexin-V/7-AAD staining of GFPhigh-selected iCasp9M-transduced T cells after CID; type: cell-based, human
# [3] = system: iCasp9M.IRES.IL-12-transduced cells; assay: IL-12 ELISA of supernatant of iCasp9M.I.IL-12-transduced EBV-CTLs; type: cell-based, human; conditions: 10 nM CID; detection limit 8 pg/mL
# Description: The concentration of interferon-γ (IFN-γ), IL-2, IL-4, IL-5, IL-10, and tumor necrosis factor-α (TNFα) in CTL culture supernatants was measured using the Human Th1/Th2 cytokine cytometric Bead Array (BD Pharmingen) and the concentration of IL-12 in the culture supernatants was measured by enzyme-linked immunosorbent assay (ELISA; R&D Systems, Minneapolis, Minn.) according to the instructions of the manufacturer.
# To determine whether iCasp9M could effectively destroy cells genetically modified to express an active transgene product, the ability of iCasp9M to eliminate EBV-CTLs stably expressing IL-12 was measured. While IL-12 was undetectable in the supernatant of nontransduced and iCasp9M.IRES.GFP-transduced CTLs, the supernatant of iCasp9M.IRES.IL-12-transduced cells contained 324 pg/mL to 762 pg/mL IL-12. After administration of 10 nM CID, however, the IL-12 in the supernatant fell to undetectable levels (<8 pg/mL). Thus, even without prior sorting for high transgene expressing cells, activation of iCasp9M is sufficient to completely eliminate all T cells producing biologically relevant levels of IL-12 (FIG. 6). The function of iCasp9M when coexpressed with IL-12 is graphically represented by bar graphs in FIG. 6. […] Three days after a second antigenic stimulation, the levels of IL-12 in the culture supernatant were measured by IL-12 ELISA (detection limit of this assay is 8 pg/mL). […]
# [4] = system: gene-modified allodepleted cells; assay: Induction of apoptosis with AP20187 in gene-modified allodepleted cells (annexin V/7-AAD); type: cell-based, human
# Description: as §1
# Cells were maintained in T cell medium containing 50 U/ml IL-2 until 22 days after transduction. A portion of cells was reactivated on 24-well plates coated with […] OKT3 and 1 μg/ml anti-CD28 (Clone CD28.2, BD Pharmingen, San Jose, Calif.) for 48 to 72 hours. CD19 expression and suicide gene function in both reactivated and non-reactivated cells were measured on day 24 or 25 post transduction.
# In some experiments, cells also were cultured for 3 weeks post transduction and stimulated with 30G-irradiated allogeneic PBMC at a responder:stimulator ratio of 1:1. After 4 days of co-culture, a portion of cells was treated with 10 nM AP20187. Killing was measured by annexin V/7-AAD staining at 24 hours, and the effect of dimerizer on bystander virus-specific T cells was assessed by pentamer analysis on AP20187-treated and untreated cells.
# [5] = system: differentiated progeny of human MSCs expressing iCasp9; assay: Apoptosis of differentiated iCasp9-positive MSCs (TUNEL, cell density); type: cell-based; conditions: adipocytic differentiation, 50 nM CID, after 24 hours (from 584 cells/mm2)
# Description: Differentiated MSCs. Transduced MSCs were differentiated as presented above. At the end of the differentiation period, CID was added to the differentiation media at 50 nM. Cells were stained appropriately for the tissue being studied, as presented above, and a contrast stain (methylene azur or methylene blue) was used to evaluate the nuclear and cytoplasmic morphology. In parallel, tissues were processed for terminal deoxynucleotidyl-transferase dUTP nick end labeling (TUNEL) assay as per manufacturer instructions (In Situ Cell Death Detection Kit, Roche Diagnostics, Mannheim, Germany). For each time point, four random fields were photographed at a final magnification of 40× and the images were analyzed with ImageJ software version 1.43o (NIH, Bethesda, Md.). Cell density was calculated as the number of nuclei (DAPI positivity) per unit of surface area (in mm^2). The percentage of apoptotic cells was determined as the ratio of the number of nuclei with positive TUNEL signal (FITC positivity) to the total number of nuclei. Controls were maintained in culture without CID.
# After culture in adipocytic differentiation media, iCasp9-positive cells gave rise to adipocytes. After exposure to 50 nM CID, progressive apoptosis was observed as evidenced by an increasing proportion of TUNEL-positive cells. […]
# [6] = representative example of 3 separate experiments
# [7] = 10 nM, 24 hours, day following immunomagnetic selection
compound,measurement,setting,value
CC[C@H](C(=O)N1CCCC[C@H]1C(=O)O[C@H](CCc1ccc(OC)c(OC)c1)c1cccc(OCC(=O)NCC(CNC(=O)COc2cccc([C@@H](CCc3ccc(OC)c(OC)c3)OC(=O)[C@@H]3CCCCN3C(=O)[C@@H](CC)c3cc(OC)c(OC)c(OC)c3)c2)CN(C)C)c1)c1cc(OC)c(OC)c(OC)c1 [AP20187],toxicity to non-transduced cells,non-transduced cells,non-toxic
same,viability of non-transduced cells with AP20187,non-transduced cells; n=6,about 86%±9
same,transduced T cells undergoing apoptosis after administration of CID,[1],Up to 90%
same,time to apoptotic characteristics (cell shrinkage and fragmentation) after CID administration,[2]; GFPhigh-selected cells,≤ 14 h
same,"apoptotic phenotype (annexin V+, 7-AAD−)",[2]; [6],64%
same,"necrotic phenotype (annexin V+, 7-AAD+)",[2]; [6],32%
same,IL-12 in the supernatant after CID,[3],< 8 pg/mL
same,AP20187-treated cells remaining viable,[4]; [7],about 5.5%±2.5
same,Killing efficiency after correction for baseline viability,[4]; [7],about 92.9%±3.8
same,killing efficiency,"[4]; day 24 or 25, OKT3/aCD28-reactivated cells",~84.6%±8.0
same,residual viability following treatment with AP20187,"[4]; day 24 post transduction, 10 nM",19.6±5.6%
same,apoptosis / elimination of iCasp9-modified T cells after dimerizer (summary statement),"[4]; in vitro, listed as small-molecule dimerizer",> 90%
same,cell density after CID,[5],< 14 cells/mm2
